Literature values as cited in patent US20100331420A1, “Combination Therapies for the Treatment of Obesity” (priority 2009, published 2010).

Settings: published studies of each weight loss medication

Row | Structure (SMILES) | weight loss of body weight for drug compared with placebo
1 | CC(C)CC(N(C)C)C1(c2ccc(Cl)cc2)CCC1 (stereo not drawn) [sibutramine] | about 5%
2 | CCCCCCCCCCC[C@@H](C[C@@H]1OC(=O)[C@H]1CCCCCC)OC(=O)[C@H](CC(C)C)NC=O [orlistat] | about 5%
3 | CCN[C@@H](C)Cc1cccc(C(F)(F)F)c1 [dexfenfluramine] | about 5%
